Measurements as given in ChEMBL document CHEMBL1143688 (J Med Chem, 2007).

Legend:
Plasma = experiment: Inhibition of 10.0 ug/mL collagen-induced platelet aggregation in human platelet rich plasma; format: functional
Phosphodiesterase 3 = Phosphodiesterase 3 (Homo sapiens, UniProt Q14432+Q13370); experiment: Inhibition of human platelet PDE3

Row | IC50 (Phosphodiesterase 3) | SMILES | IC50 (Plasma)
1 | – | O=c1cc(N2CCNCC2)c2ccccc2o1 | 36 µM
2 | 0.037 µM | Cc1c(OCc2cccnc2)ccc2c(N3CCNCC3)cc(=O)oc12 | –
3 | 0.078 µM | Cc1c(OCCN2CCOCC2)ccc2c(N3CCNCC3)cc(=O)oc12 | –
4 | – | O=c1cc(N2CCNCC2)oc2ccccc12 | 60 µM
5 | 0.28 µM | O=C1CCc2cc(OCCCCc3nnnn3C3CCCCC3)ccc2N1 [CILOSTAZOL] | –
